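Dose response: 5 concentrations. Exposure: 48 h. Format: 96-well plates. Endpoint: linear interpolation; highest concentration if not reached. GI50 is the concentration that inhibits growth by half.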 Calls of active or inactive are those of the source. No stated cut-off is given here; in the data, active = GI50 up to about 1.1 µM and inactive = higher.
Tests used:
Assay in all cases: NCI-60 cell line screen, 48 h
[1] = test system: T47D
[2] = test system: NCI-H226
[3] = test system: SNB-75
[4] = test system: OVCAR-5
[5] = test system: SF-268
[6] = test system: SK-OV-3
[7] = test system: OVCAR-8
[8] = test system: HCC 2998
[9] = test system: SK-MEL-5
[10] = test system: UACC-257
[11] = test system: TK-10
[12] = test system: SNB-19
[13] = test system: MDA-MB-435
[14] = test system: RXF 393
[15] = test system: MCF7
[16] = test system: SF-539
[17] = test system: CAKI-1
[18] = test system: HL-60
[19] = test system: Hs-578T

SMILES	GI50 [1]	GI50 [2]	GI50 [3]	GI50 [4]	GI50 [5]	GI50 [6]	GI50 [7]	GI50 [8]	GI50 [9]	GI50 [10]	GI50 [11]	GI50 [12]	GI50 [13]	GI50 [14]	GI50 [15]	GI50 [16]	GI50 [17]	GI50 [18]	GI50 [19]
C=C[C@]1(C)C[C@@H](OC(=O)CO)[C@@]2(C)[C@H](C)CC[C@]3(CCC(=O)[C@H]32)[C@@H](C)[C@@H]1O	99.5 µM (inactive)	> 100 µM (inactive)	> 74 µM (inactive)	> 100 µM (inactive)	> 83.2 µM (inactive)	> 100 µM (inactive)	> 100 µM (inactive)	72.9 µM (inactive)	> 89.5 µM (inactive)	> 76.6 µM (inactive)	> 59.3 µM (inactive)	> 100 µM (inactive)	> 68.1 µM (inactive)	> 59 µM (inactive)	21.5 µM (inactive)	> 100 µM (inactive)	> 100 µM (inactive)	49.8 µM (inactive)	> 53.1 µM (inactive)
COCn1c(C)c(C)c2c(=O)oc(=O)[nH]c21	> 100 µM (inactive)	> 100 µM (inactive)	> 100 µM (inactive)	> 100 µM (inactive)	> 100 µM (inactive)	> 100 µM (inactive)	> 100 µM (inactive)	> 100 µM (inactive)	> 100 µM (inactive)	> 100 µM (inactive)	> 100 µM (inactive)	> 100 µM (inactive)	> 100 µM (inactive)	> 100 µM (inactive)	> 100 µM (inactive)	> 100 µM (inactive)	8.24 µM (inactive)	54.8 µM (inactive)	> 100 µM (inactive)
Nc1nc(Cl)c(/N=N/c2ccc(Cl)cc2)c(NCC2(CO)CCC(CCc3ccccc3)C2)n1 (stereo not given)	3.94 µM (inactive)	1.91 µM (inactive)	13.6 µM (inactive)	15.4 µM (inactive)	6.22 µM (inactive)	12 µM (inactive)	5.4 µM (inactive)	5.97 µM (inactive)	1.37 µM (inactive)	10.6 µM (inactive)	13.8 µM (inactive)	19.5 µM (inactive)	9.98 µM (inactive)	7.8 µM (inactive)	5.62 µM (inactive)	14.2 µM (inactive)	2.8 µM (inactive)	4.14 µM (inactive)	8.51 µM (inactive)
CCCCC1(N=[N+]=[N-])C(=O)C2C=CC=C3c4ccccc4N(C1=O)C32 (stereo not given)	14.1 µM (inactive)	21.3 µM (inactive)	11.6 µM (inactive)	19.8 µM (inactive)	19.9 µM (inactive)	25.8 µM (inactive)	20.1 µM (inactive)	15.6 µM (inactive)	16.4 µM (inactive)	18.4 µM (inactive)	16.4 µM (inactive)	22.1 µM (inactive)	19.1 µM (inactive)	13.7 µM (inactive)	17.1 µM (inactive)	20 µM (inactive)	19.8 µM (inactive)	34 µM (inactive)	12.3 µM (inactive)
O=c1c2ccccc2[nH]n1Cc1ccccc1	> 100 µM (inactive)	> 100 µM (inactive)	> 100 µM (inactive)	> 100 µM (inactive)	> 100 µM (inactive)	> 100 µM (inactive)	> 100 µM (inactive)	> 100 µM (inactive)	> 100 µM (inactive)	> 100 µM (inactive)	> 100 µM (inactive)	> 100 µM (inactive)	> 100 µM (inactive)	> 100 µM (inactive)	> 100 µM (inactive)	> 100 µM (inactive)	> 100 µM (inactive)	> 100 µM (inactive)	> 100 µM (inactive)
CC(C#N)N(CCc1ccccc1)C(=O)c1ccccc1 (stereo not given)	39.2 µM (inactive)	> 100 µM (inactive)	27.4 µM (inactive)	> 100 µM (inactive)	> 100 µM (inactive)	> 100 µM (inactive)	> 100 µM (inactive)	> 100 µM (inactive)	> 100 µM (inactive)	> 100 µM (inactive)	> 100 µM (inactive)	> 100 µM (inactive)	> 100 µM (inactive)	> 100 µM (inactive)	> 100 µM (inactive)	> 100 µM (inactive)	> 100 µM (inactive)	> 100 µM (inactive)	> 100 µM (inactive)
CCCCC1=CC1(C#N)[N+](=O)[O-] (stereo not given)	> 100 µM (inactive)	> 100 µM (inactive)	39.9 µM (inactive)	> 100 µM (inactive)	> 100 µM (inactive)	> 100 µM (inactive)	> 100 µM (inactive)	> 100 µM (inactive)	36.5 µM (inactive)	> 100 µM (inactive)	> 100 µM (inactive)	> 100 µM (inactive)	> 100 µM (inactive)	> 100 µM (inactive)	45.4 µM (inactive)	> 100 µM (inactive)	> 100 µM (inactive)	> 10 µM (inactive)	> 100 µM (inactive)
NC(=S)N/N=C1/CCCC2CCCC[C@@H]12 (stereo not given in full)	37.4 µM (inactive)	> 100 µM (inactive)	> 100 µM (inactive)	> 100 µM (inactive)	> 100 µM (inactive)	> 100 µM (inactive)	> 100 µM (inactive)	> 100 µM (inactive)	97.3 µM (inactive)	> 100 µM (inactive)	> 100 µM (inactive)	> 100 µM (inactive)	> 100 µM (inactive)	> 100 µM (inactive)	> 100 µM (inactive)	> 100 µM (inactive)	> 100 µM (inactive)	> 100 µM (inactive)	76.4 µM (inactive)
c1ccc(/N=C2\c3ccccc3CN2c2ccccn2)nc1	17.5 µM (inactive)	> 100 µM (inactive)	94.8 µM (inactive)	> 100 µM (inactive)	> 100 µM (inactive)	> 100 µM (inactive)	> 100 µM (inactive)	37.8 µM (inactive)	> 100 µM (inactive)	> 100 µM (inactive)	> 100 µM (inactive)	> 100 µM (inactive)	> 100 µM (inactive)	> 100 µM (inactive)	49.9 µM (inactive)	> 100 µM (inactive)	> 100 µM (inactive)	< 0.01 µM (active)	> 100 µM (inactive)
CCC(C)C1NC(=O)C(NC(=O)C(CC(C)C)N(C)C(=O)[C@@H]2C=CCN2C(=O)[C@H](C)O)C(C)OC(=O)[C@H](Cc2ccc(OC)cc2)N(C)C(=O)[C@@H]2CCCN2C(=O)[C@H](CC(C)C)NC(=O)C(C)C(=O)[C@H](C(C)C)OC(=O)CC1O (stereo not given in full)	0.0013 µM (active)	< 0.01 µM (active)	0.00198 µM (active)	0.0137 µM (active)	0.00243 µM (active)	0.00239 µM (active)	0.00467 µM (active)	0.00306 µM (active)	0.000914 µM (active)	0.00311 µM (active)	0.0175 µM (active)	0.00374 µM (active)	0.00277 µM (active)	< 0.01 µM (active)	0.00164 µM (active)	0.00139 µM (active)	0.00984 µM (active)	0.00299 µM (active)	< 0.01 µM (active)

Source: ChEMBL document CHEMBL1201862, “PubChem BioAssay data set” (2004)
